Results on 13 compounds are retold here after EP0705591A2, “Cyclic amidocarboxy surfactants, synthesis and use thereof” (STEPAN COMPANY, priority 1989, dated 1991).

Common to all, as to type: physicochemical
Series [1] in a line: Emulsion stability test (modified, xylene/water). Conditions: 0.5g surfactant, 90 mL deionized water, 5.0 mL xylene; second rocking sequence. Here is the method:
In order to obtain reproducible results, an emulsion stability test, modified from the standard used in the art for testing surfactants was developed. In the modified procedure, 0.5g of a select surfactant (instead of 1g) was dissolved in 90 mL of deionized water in a graduated cylinder containing 5.0 mL of xylene, which was then sealed and rocked between a vertical/horizontal position for 30 cycles, allowed to settle for about 5 to 10 minutes and subjected to the same rocking cycle with the results of the second sequence recorded (instead of the first sequence).

Series [2] is described as follows: Caustic stability (reflux with NaOH). Conditions: for ES*(mL/sec) (Emulsion Stability): reflux with an equivalent of NaOH. As for the experimental part: In order to determine caustic stability of the phthalamates, 5g of octylphthalamic acid was dissolved in 450 mL of water containing an equivalent of NaOH. This mixture was heated at reflux for about 24 hours and five separate 90mL samples were withdrawn at 0 hours, 1 hour, 2 hours, 16.5 hours and 23.7 hours. The resulting individual samples were acidified and the sodium N-octylphthalamic acid was isolated and analyzed (filtered, dried, weighted and m.p. and neutralization equivalents were obtained).

A short description of series [3]: Particulate material suspension. As for the experimental part: In this test, potassium N-octadecylphthalamate was utilized as a suspending agent in a typical shampoo base with known particulate anti-dandruff materials, zinc pyrithione and coal tar. Particulate (about 500 mesh) zinc pyrithione and particulate (about 350 to 400 mesh) coal tar were suspended in shampoo base formulations and stored at room temperature, at about 1.6°C and at about 43.3°C.
About 2 percent potassium octadecylphthalamate was incorporated with about 50 to 70 percent particulate coal (average size about 200 mesh) and about 30 to 50 percent water at ambient temperature.

A further series is described as follows: Draves Wetting test. Conditions: tap water; active level of 0.1%. From the text:
(§1) Standard Ross-Miles Foaming and Draves Wetting tests were preformed on various fatty phthalamates with the results set forth in Table 1 below. In all tests, an active level of 0.1% was utilized.

Another series can be described thus: Ross-Miles Foaming test. Conditions: tap water; active level of 0.1%.
Description: as §1

Series [4] can be described thus: Bleach (chlorine ion) stability. The note with it: for formulation clarity / foaming characteristics: 2.0% actives surfactant, 4.0% actives NaOCl; for formulation clarity: 1.0% NaOH, 90°C water bath about 5 hours; for foaming characteristics: after about 5 hours at 90°C. An excerpt: Select N-alkyl and N,N-dialkyl phthalamates were incorporated into a standard test formulation containing a common bleach. […] The standard formulation comprised 4.0% actives of NaOCl; 0.25% actives NaCl; 1.0% actives NaOH (50%); 2.0% actives surfactant and Q.S. 100% deionized water. 1. DOWFAX^R-2A1 is Dow Chemical Company's registered trademark for sodium branched C₁₂ diphenyloxide disulfonate. 2. MAKON^R- 10 is Stepan Company's registered trademark for a nonylphenol polyethoxylate.
The various formulations were individually placed in tightly capped jars and subjected to a 90°C water bath for about 5 hours and then observed for formulation clarity and foaming characteristics. Each sample was run in duplicate.

Series [5] is described as follows: Thermal stability followed by IR spectroscopy. Conditions: for Conversion to the N-dodecylphthalimide: neat (100% actives), about 100°C. As for the experimental part:
Thermal stability studies were conducted with neat (100% actives) sample of ammonium N-dodecylphthalamate mulled on sodium chloride plates. […]

Series [6] in a line: Crude oil emulsification/dispersion and pH reversibility. Here is the method: Sodium N-dodecylphthalamate, sodium N-cocophthalamate, sodium N-isodecyloxypropylphthalamate and sodium N-isododecyloxypropylphthalamate, along with a control (tap water only), were evaluated as emulsifying and/or dispersing and/or suspending agents for a given, heavy (viscous) crude petroleum oil (Dome crude oil, David Field, California) in different water samples, one having a hardness (expressed as CaCO₃) of 150 ppm, another having a hardness of 500 ppm, along with a synthetic sea water (NaCl-containing tap water, 150 ppm). In addition, various admixtures of sodium N-dodecylphthalamate and lauryl amine oxide were similarly evaluated with the above petroleum crude oil and synthetic sea water for synergistic emulsification characteristics.
The respective surfactants were prepared as aqueous solutions with the various water samples at a concentration of about 0.1 percent actives. Measured samples (50 mL) of the surfactant solutions were placed in 100 mL graduated cylinders, 2 drops of the crude oil added, the cylinders stoppered and relatively vigorously shaken manually for about 10 to 20 seconds. The degree of emulsification/dispersion, suspension was noted and recorded The data is set for in Table VIII below.
At relatively high pH values (i.e., above about 7) emulsification of the crude oil readily occurred and at relatively how pH values (i.e., below about 5) de-emulsification of the crude oil readily occurred. A control was prepared from a sample of the 150 ppm hardness water without surfactant but with 2 drops of the above crude oil.
The foregoing cycle between relatively high pH and relatively low pH was repeated an additional three times, with essentially identical emulsification/de-emulsification results. During a low (4.9) pH de-emulsification cycle, separated crude oil was removed, by decantation and a pH of the remaining (used) phthalamic solution was adjusted to about 13.5 and fresh crude oil added. […] Upon addition of additional fresh sodium N-dodecylphthalamate, the emulsion re-formed.

The mark [7] stands for this setting: 0.1% actives in 50 mL of 150 ppm hardness water.

For the compound `CCCCCCCCNC(=O)c1ccccc1C(=O)[O-].[Na+]` [Sodium N-octylphthalamate], the “Emulsion Break Rate” value in series [1] was found to be 0.111 mL/s. Besides, the “pH at which stable” value in series [2] (caustic environment, reflux about 24 hours) is listed as “at least 10”. Besides, the “ES*(mL/sec) (Emulsion Stability)” value in series [2] (sample at 0 hr) is 0.0252 mL/s; in series [2] (sample at 1 hr), 0.0325 mL/s; in series [2] (sample at 2 hr) it was 0.0400 mL/s; in series [2] (sample at 16.5 hr), 0.0690 mL/s; in series [2] (sample at 23.7 hr) it was 0.108 mL/s.
Consider `CCCCCCCCNC(=O)c1ccccc1C(=O)O.OCCN(CCO)CCO` [Triethanolammonium N-octylphthalamate], for which the “Emulsion Break Rate” value in series [1] is 0.043 mL/s.
Turning to `CCCCCCCCCCCCCCCCCCNC(=O)c1ccccc1C(=O)[O-].[K+]` [potassium N-octadecylphthalamate], the “suspension of particulate coal in water” value in series [3] (about 2 percent with about 50 to 70 percent coal (about 200 mesh), ambient temperature) was “free flowing, substantially homogeneous suspension”. In addition, in series [3] (after 5 days at 43.3°C), the “stability of zinc pyrithione suspension in shampoo base” value is given as “phase separation”. Besides, in series [3] (after 5 days at room temperature, at 1.6°C and at 43.3°C), the “stability of coal tar suspension in shampoo base” value is on record as “excellent stability”.
`CC(C)CCCCCCCCCOCCCNC(=O)c1ccccc1C(=O)[O-].[Na+]` [sodium isododecyloxypropylphthalamate, Sodium N-Isododecyloxypropylphthalamate] showed a wetting time in the series “Draves Wetting test” of 4.5 s. Further, the foam height in “Ross-Miles Foaming test” came out at 5.5 cm.
`CCCCCCCCCCCCCCCCNC(=O)c1ccccc1C(=O)[O-].[Na+]` [Sodium N-hexadecylphthalamate]: in series [1], the “Emulsion Break Rate” value was 0.102 mL/s.
Same read-out and setting: for `CCCCCCCCCCNC(=O)c1ccccc1C(=O)O.OCCN(CCO)CCO` [Triethanolammonium N-decylphthalamate] the value was 0.046 mL/s.
Consider `CCCCCCCCCCCCN(C)C(=O)c1ccccc1C(=O)[O-].[Na+]` [sodium N-methyl-N-dodecylphthalamate, Sodium N-Dodecyl-N-methylphthalamate], for which, in series [4], the formulation clarity result is “clear yellow throughout the test” and the foaming characteristics result was “unstabile”. The bleach stability entry in series [4] (conclusion from the 90°C bleach test) is “good bleach stability”.
Turning to `CCCCCCCCCCCCNC(=O)c1ccccc1C(=O)[O-].[Na+]` [Sodium N-dodecylphthalamate, Sodium N-Dodecylphthalamate], in series [1], the “Emulsion Break Rate” value is 0.068 mL/s. Moreover, the thermal stability result in series [5] (120°C) is recorded as “stabile”. Also, the formulation clarity entry in series [4] is “initially clear yellow but became cloudy and exhibited phase separation”. In series [6] (setting [7]), the “pH values at which de-emulsification of the crude oil readily occurred” value was “below 5”. In series [6] (setting [7]), the “pH values at which emulsification of the crude oil readily occurred” value is “above 7”. Moreover, the “emulsification of crude oil” value is given as “the oil readily emulsified” in series [6] (0.1% actives, 150 ppm hardness water, pH of 8.5); “the emulsion broke” in series [6] (pH dropped to about 3.5); “a slight flocculation noted” in series [6] (pH dropped to about 5.2); “without noticeable de-emulsification” in series [6] (pH dropped to about 7.0); “the emulsion broke, almost instantly, with floccing” in series [6] (pH dropped with 1N HCl to about 2.6); “an emulsified solution was noted” in series [6] (pH raised with 1N NaOH to about 13.4). Further, the “emulsification of crude oil” value in series [6] (used solution, pH about 13.5, fresh crude oil added) is recorded as “very stabile emulsion was quickly formed”.
In the case of sodium N,N-dicocophthalamate, in series [4], the formulation clarity entry is “poor solubility, with phase separation” and the foaming characteristics entry was “no pre-bath or post-bath foam”.
For the compound `CCCCCCCCCCCCCCNC(=O)c1ccccc1C(=O)[O-].[Na+]` [Sodium N-tetradecylphthalamate], in series [1], the “Emulsion Break Rate” value was found to be 0.085 mL/s.
As for `CCCCCCCCCCCCNC(=O)c1ccccc1C(=O)O.OCCN(CCO)CCO` [Triethanolammonium N-dodeylphthalamate], the “Emulsion Break Rate” value in series [1] was determined as 0.039 mL/s.
On the same count and under the same terms, for `CCCCCCCCCCNC(=O)c1ccccc1C(=O)[O-].[Na+]` [Sodium N-decylphthalamate] the value was 0.034 mL/s.
For `CCCCCCCCCCCCNC(=O)c1ccccc1C(=O)O.N` [ammonium N-dodecylphthalamate, Ammonium N-Dodecylphthalamate], the “Conversion to the N-dodecylphthalimide” value in series [5] (10 minutes) was “very apparent”; in series [5] (20 minutes), “almost total conversion”.
